Assay [1] relates to Human osteosarcoma U2OS cells. Kind of assay: Assay to measure lysosome and autolysosome (acidic vesicle) formation in U2OS cells. Format: cell-based. Conditions: Homo sapiens, concentration of 0.8 μM, read-out: Activity (percentage increase in acidic vesicle formation over the DMSO-treated control). The procedure: Lysosomes play a fundamental role in the autophagic pathway by fusing with autophagosomes and creating ‘autolysosomes’ in order to digest their contents. Stimulation of lysosome and autolysosome formation by a compound is indicative of a stimulation of autophagy. The ability of compounds to stimulate lysosome and autolysosome formation, and thus autophagy, in live cells was assessed via fluorescent microscopy using various fluorescent stains for labelling and tracking acidic organelles (including lysosomes and autolysosomes) such as: LysoView™ 650 (70059 and 70059-T, Biotium), Lyso View™633 (70058 and 70058-T, Biotium) and LysoTracker™ Deep Red (L12492, ThermoFisher Scientific). The cellular phenotype was quantitatively assessed for the induction of acidic vesicle formation and compared to a non-treated control, thus providing a measure of the ability of the compound under investigation to stimulate autophagy.
Representative procedure using LysoView™ 633 dye or LysoTracker™ Deep Red dye: Human osteosarcoma U2OS cells (40,000 cells/well) were seeded in a 24 well glass bottom plate (Sensoplate, Greiner Bio-One) and were incubated overnight in a humidified atmosphere at 37° C. and 5% CO2. Cells were grown in DMEM (Gibco) supplemented with 10% Fetal Bovine Serum (FBS) and 100 units/ml penicillin and 100 μg/ml streptomycin (Invitrogen). After the attachment period, cells were treated with different compounds of interest (at various concentrations in DMSO) or DMSO (non-treated control) in cell culture medium and were incubated for 24 hours. Compound-containing medium was removed and cells were incubated with pre-warmed cell culture medium containing 1× Lyso View™ 633 (70058 and 70058-T, Biotium) or 50 nM LysoTracker™ Deep Red (L12492, ThermoFisher Scientific) for 45 minutes at 37° C. Finally, cell nuclei were stained for 10 minutes using Hoechst 33342 (1 μg/mL) and then the medium was replaced with fresh medium. The 24 well plate was then fitted into a heated stage on the microscope and cells maintained at 37° C. Images were captured using appropriate filter set for Cy5 and DAPI detection with the EVOS M7000 Microscope (ThermoFisher Scientific). The cellular phenotype was visually assessed for the induction of acidic vesicle formation relative to the non-treated control; multiple images were acquired and analysed using ImageJ or Cell Profiler.

For assay [2], the system named is primary spinal cord lower motor neurons (MNs) from SOD1 G93A Tg rats. Nature of the assay: Cellular model of Amyotrophic Lateral Sclerosis (glutamate injury). Format: cell-based, rat. The procedure:
Compounds 157 (particularly) preferred), 185 and 196 were selected example compounds if this invention to evaluate in this model. This model (run by Neuro-Sys SAS, France) evaluates the protective effects of test compounds on primary spinal cord lower motor neurons (MNs) from SOD1 G93A Tg rats, after a glutamate injury. The MNs are pre-treated with the test compounds for 1 hour prior to exposure to glutamate, and readouts are measured 24 hours later. This model functions as an in vitro model of Amyotrophic Lateral Sclerosis. […] Any substances which can attenuate one or more of these effects can be considered to have protective effects in the model and may be useful as a new therapeutic agent for the treatment or prevention of ALS.
Genotyping of SOD1 Tg embryos: Pregnant female rat SODIG93A (Sprague Dawley, Taconic), of 14 days of gestation were obtained fromTaconic Bioscience. On the day of the dissection (from pregnant females at 14 days of gestation), a piece of each embryo brain (˜3 mm) was placed in a 2 mL tube free DNase with a new scalpel. The DNA was extracted with the SYBR Green Extract-N-Amp tissue PCR kit (Sigma Aldrich). Briefly, 120 μL of extraction solution was put on each piece of embryo heads. Then, they were incubated for 10 min at room temperature. At the end of this incubation period, the heads were incubated for 5 min at 95° C. Immediately after this last incubation, 100 μL of neutralizing solution was added; each DNA extract was diluted at 1/40 and stored at +4° C. until use. SOD1G93A gene was determined using genomic fragment with human SOD1 primers (5′-[…]-3′ (SEQ ID NO: 1); 5′-[…]-3′ (SEQ ID NO: 2)). The SOD1 primers were diluted at 3 μM in sterile ultrapure water. Briefly, a mix for PCR was prepared with ultrapure water (4 μL per sample), primer at 3 μM (2 μL per sample) and Master Mix (10 μL per sample). In a PCR 96 wells plate, 16 μL of PCR mix was added in each well. 4 μL of each diluted DNA was added according to a plan deposit. The RT-PCR was ran using the CFX96 Biorad RT-PCR system, using the following program: Initial denaturation (95° C., 20 sec)/45 cycles (95° C., 10 sec; 65° C., 10 sec; 72° C., 30 sec)/Melt curve (95° C., 15 sec; 64° C., 1 min; 90° C., 30 sec; 60° C. 15 sec). The amplification plots and melt curves were analyzed with the Biorad software. The results for each sample were compared to negative control (ultrapure water) and to the positive control (DNA from Tg embryos).
Rat spinal cord motor neurons (MNs) were be cultured as described by Wang et al. 2013 and Boussicault et al., 2020. Briefly, pregnant female rats of 14 days gestation (Sprague Dawley; Taconic) were killed using a deep anesthesia with CO2 chamber and a cervical dislocation. Then, fetuses were removed from the uterus and immediately placed in ice-cold L15 Leibovitz medium with a 2% penicillin (10,000 U/ml) and streptomycin (10 mg/ml) solution (PS) and 1% bovine serum albumin (BSA).
Spinal cords were treated for 20 min at 37° C. with a trypsin-EDTA solution at a final concentration of 0.05% trypsin and 0.02% EDTA. The dissociation was stopped by addition of Dulbecco's modified Eagle's medium (DMEM) with 4.5 g/liter of glucose, containing DNAse I grade II (final concentration 0.5 mg/mL) and 10% fetal calf serum (FCS). Cells were mechanically dissociated by three forced passages through the tip of a 10-ml pipette. Cells were then centrifuged at 515×g for 10 min at 4° C. The supernatant was discarded, and the pellet was resuspended in a defined culture medium consisting of Neurobasal medium with a 2% solution of B27 supplement, 2 mmol/liter of L-glutamine, 2% of PS solution, and 10 ng/ml of brain-derived neurotrophic factor (BDNF). Viable cells were counted in a Neubauer cytometer, using the trypan blue exclusion test. The cells were seeded at a density of 20,000 per well in 96-well plates precoated with poly-L-lysine and will be cultured at 37° C. in an air (95%)—CO2 (5%) incubator. […]

Take `CCN1CCC(N(C)C(=O)c2csc(-c3cnn(-c4ccccc4)c3)n2)CC1` [Compound 196, N-(1-ethylpiperidin-4-yl)-N-methyl-2-(1-phenyl-1H-pyrazol-4-yl)-1,3-thiazole-4-carboxamide]: the activation at 0.8 µM in assay [1] lay within 30 to 50%. For the same compound, the “effects in the in vitro model of ALS” value in assay [2] is “positive effects”. In addition, in assay [2] (0.5 μM, 1 μM and 10 μM), the “abnormal TDP43 accumulation in the cytoplasm resulting from glutamate injury” value is given as “fully abolished”. The “increase in neurite network length” value in assay [2] (10 μM, compared to glutamate injury alone) was determined as 16%. The “increase in number of motor neurons” value in assay [2] (1 and 10 μM, compared to glutamate injury alone) was greater than 10%.
